Test [1] concerns the target T1, human full length PDE3A (Homo sapiens, UniProt Q14432).
T1 construct: Sf9 cells overexpressing human full length PDE3A; purchased SB Drug Discovery, UK; host or cells: Sf9 cells (cell extract)
Description: PDE3A enzyme inhibition (3H-cAMP Scintillation Proximity Assay). The test is classed as biochemical. Conditions: PDE3A cell extract from Sf9 cells, 60 min room temperature; read-out: Target IC50 PDE3A IC50. Here is the method: (§1) The commercially available 3H-cAMP Scintillation Proximity Assay (SPA, Perkin Elmer) system was used for enzyme inhibition studies. For the determination of the in vitro effect of test substances on the PDE3A reactions 2 μl of the respective test compound solution in DMSO (serial dilutions) were is placed in wells of microtiter plates (Isoplate-96/200W; Perkin Elmer). 50 μl of a dilution of PDE3A cell extract from Sf9 cells overexpressing human full length PDE3A (SB Drug Discovery, UK) in buffer A (50 mM Tris/HCl pH 7.5, 8.3 mM MgCl2, 1.7 mM EDTA, 0.2% BSA) was added. The dilution of the PDE3A cell extract was chosen such that the reaction kinetics was linear and less than 70% of the substrate was consumed (typical dilution 1:5000). The reaction was started by addition of 50 μl (0.025 μCi) of 1:2000 in buffer A w/o BSA diluted substrate [8-3H] adenosine 3′,5′-cyclic phosphate (1 μCi/μl; Perkin Elmer). After incubation at room temperature for 60 min, the reaction was stopped by addition of 25 μl of a suspension containing 18 mg/ml yttrium scintillation proximity beads (Perkin Elmer) in water. The microtiter plates were sealed and measured in a Microbeta scintillation counter (PerkinElmer Wallac). IC50 values were determined from sigmoidal curves by plotting percentage PDE3A activity vs log compound concentration.
On the technique in general: In a scintillation proximity assay essentially only radioactivity close to the scintillant gives light.

Test [2] concerns SK-MEL-3 (melanoma). Description: Cell proliferation measurement (Cell Titer Glo), SK-MEL-3. Conditions: Homo sapiens, SK-MEL3, SK-MEL-3 cells, 72 h treatment, read-out: Anti-proliferation IC50 SK-MEL-3 (melanoma). Type of test: cell-based. Here is the method: (§2) The antiproliferative activity of the compounds of the general formula (I) was examined in vitro in human cancer cells. For this purpose, 1000 cells (or 500 HeLa cells) were plated in 384-well plates with appropriate growth medium and incubated at 37° C. overnight. After 24 h, the cells on the test plate were treated with the compounds of the general formula (I) as and incubated at 37° C. for 72 h. The compounds were added to the cells by means of an HP D300 digital dispenser in a 10 (or more)-step dilution series. As control, the cells were treated with vehicle (DMSO at 0.3% final concentration). After 72 h, the cells were treated with 20 μl/well of 50% CTG solution in PBS (Promega Cell Titer Glo (catalogue #G755B and G756B)) and incubated at room temperature for 10 min, and luminescence was measured by means of a VICTOR V (Perkin Elmer), in order to determine cell viability at the end of treatment. The percentage effect on cell growth and the IC50 derived therefrom were determined for each test substance using the values from untreated wells (=percent viability). The IC50 values were calculated using a 4-parameter fit.
In general terms: ATP-based viability assays read luminescence as a measure of living cells.

Test [3] concerns the target T2, human full length PDE3B (Homo sapiens, UniProt Q13370).
T2 construct: Sf9 cells overexpressing human full length PDE3B; purchased SB Drug Discovery, UK; host or cells: Sf9 cells (cell extract)
As to the kind of experiment: PDE3B enzyme inhibition (3H-cAMP Scintillation Proximity Assay). The test is classed as biochemical. As to conditions: PDE3B cell extract from Sf9 cells, 60 min room temperature; read-out: Target IC50 PDE3B IC50. The method, then: as §1, with “PDE3B” for “PDE3A”, “were” for “were is”, “1:6000).” for “1:5000).”

For test [4], the system named is HeLa cells (cervical cancer). As to the kind of experiment: Cell proliferation measurement (Cell Titer Glo), HeLa. The test is classed as cell-based. As to conditions: Homo sapiens, 72 h treatment, read-out: Anti-proliferation IC50 HeLa (Cervical cancer). Here is the method: as §2

Experimental findings from patent US11897867B2, “6-phenyl-4,5-dihydropyridazin-3(2H)-one derivatives as PDE3A and PDE3B inhibitors for treating cancer” (Bayer Aktiengesellschaft, priority 2017, dated 2024) are described below.

T1 sequence (Q14432 whole entry): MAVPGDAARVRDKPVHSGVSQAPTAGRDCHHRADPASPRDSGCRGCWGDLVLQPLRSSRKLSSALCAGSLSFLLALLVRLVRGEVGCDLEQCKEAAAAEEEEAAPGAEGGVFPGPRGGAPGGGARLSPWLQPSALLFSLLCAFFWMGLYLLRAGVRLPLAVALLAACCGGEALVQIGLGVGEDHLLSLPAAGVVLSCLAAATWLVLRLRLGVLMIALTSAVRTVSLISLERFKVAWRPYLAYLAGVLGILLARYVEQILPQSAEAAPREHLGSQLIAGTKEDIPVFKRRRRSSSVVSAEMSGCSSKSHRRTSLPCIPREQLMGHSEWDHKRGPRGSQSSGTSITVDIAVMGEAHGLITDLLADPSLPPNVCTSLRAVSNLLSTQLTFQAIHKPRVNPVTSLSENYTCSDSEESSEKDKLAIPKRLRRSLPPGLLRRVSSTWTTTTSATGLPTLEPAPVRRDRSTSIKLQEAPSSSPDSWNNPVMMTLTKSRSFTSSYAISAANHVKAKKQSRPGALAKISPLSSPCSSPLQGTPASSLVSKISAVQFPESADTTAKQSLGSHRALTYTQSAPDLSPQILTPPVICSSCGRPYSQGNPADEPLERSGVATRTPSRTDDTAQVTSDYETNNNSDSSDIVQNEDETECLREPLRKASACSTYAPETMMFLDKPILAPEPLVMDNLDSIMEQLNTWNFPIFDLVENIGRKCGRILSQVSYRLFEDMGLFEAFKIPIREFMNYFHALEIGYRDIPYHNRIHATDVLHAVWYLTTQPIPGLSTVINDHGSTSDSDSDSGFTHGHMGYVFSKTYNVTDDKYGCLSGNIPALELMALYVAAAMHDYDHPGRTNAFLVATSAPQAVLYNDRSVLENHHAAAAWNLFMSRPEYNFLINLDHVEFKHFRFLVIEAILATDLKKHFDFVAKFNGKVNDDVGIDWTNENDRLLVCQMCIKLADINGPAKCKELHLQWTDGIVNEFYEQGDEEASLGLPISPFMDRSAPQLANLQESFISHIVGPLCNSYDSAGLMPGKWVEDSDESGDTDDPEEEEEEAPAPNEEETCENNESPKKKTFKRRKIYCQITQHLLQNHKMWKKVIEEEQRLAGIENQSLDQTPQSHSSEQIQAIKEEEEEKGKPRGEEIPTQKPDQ
T2 sequence (Q13370 whole entry): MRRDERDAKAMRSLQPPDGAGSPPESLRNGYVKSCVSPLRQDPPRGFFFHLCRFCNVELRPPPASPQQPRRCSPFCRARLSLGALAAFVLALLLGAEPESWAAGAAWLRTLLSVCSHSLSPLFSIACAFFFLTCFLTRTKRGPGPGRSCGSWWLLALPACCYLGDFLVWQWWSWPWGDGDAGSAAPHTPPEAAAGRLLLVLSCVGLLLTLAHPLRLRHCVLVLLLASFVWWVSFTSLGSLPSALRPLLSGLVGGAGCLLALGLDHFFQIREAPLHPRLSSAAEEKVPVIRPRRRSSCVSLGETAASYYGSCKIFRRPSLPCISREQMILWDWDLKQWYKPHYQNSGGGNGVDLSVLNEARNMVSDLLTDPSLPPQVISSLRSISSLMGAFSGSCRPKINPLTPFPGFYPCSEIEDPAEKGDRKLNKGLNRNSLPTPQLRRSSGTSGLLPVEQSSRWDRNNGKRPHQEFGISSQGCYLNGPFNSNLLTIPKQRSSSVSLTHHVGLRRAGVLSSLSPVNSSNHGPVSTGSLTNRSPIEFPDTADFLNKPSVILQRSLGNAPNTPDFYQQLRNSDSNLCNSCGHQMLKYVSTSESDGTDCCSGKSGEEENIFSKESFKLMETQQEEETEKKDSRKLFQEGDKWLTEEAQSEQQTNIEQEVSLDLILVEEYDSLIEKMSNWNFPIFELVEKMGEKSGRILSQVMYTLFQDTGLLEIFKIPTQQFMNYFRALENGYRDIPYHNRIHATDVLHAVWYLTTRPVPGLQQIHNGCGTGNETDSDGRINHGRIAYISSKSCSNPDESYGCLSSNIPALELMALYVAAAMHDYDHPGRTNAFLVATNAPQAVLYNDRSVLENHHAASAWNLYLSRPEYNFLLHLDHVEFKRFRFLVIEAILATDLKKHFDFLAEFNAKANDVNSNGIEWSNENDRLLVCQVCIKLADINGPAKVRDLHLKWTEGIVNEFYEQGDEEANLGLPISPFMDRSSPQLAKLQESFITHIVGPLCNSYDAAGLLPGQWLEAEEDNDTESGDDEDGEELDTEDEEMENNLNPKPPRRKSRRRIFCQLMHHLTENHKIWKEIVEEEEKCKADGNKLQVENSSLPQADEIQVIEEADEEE

Consider `O=C1CCC(c2ccc(C3=CCOCC3)cc2)=NN1` [Example 1, 6-[4-(3,6-Dihydro-2H-pyran-4-yl)phenyl]-4,5-dihydropyridazin-3(2H)-one], for which the IC50 in test [1] was 470 nM; in test [2], greater than 100 nM; in test [3], 290 nM; in test [4] it was 30.9 nM.
`Cc1cc(C2=NNC(=O)CC2)ccc1-c1cccnc1` [Example 2, 6-[3-Methyl-4-(pyridin-3-yl)phenyl]-4,5-dihydropyridazin-3(2H)-one]: the IC50 came out at 65 nM in test [1], 14.5 nM in test [2], 67 nM in test [3] and 5.72 nM in test [4].
As to `Cc1cc(F)ccc1-c1ccc(C2=NNC(=O)CC2)cc1C` [Example 4, 6-(4′-Fluoro-2,2′-dimethylbiphenyl-4-yl)-4,5-dihydropyridazin-3(2H)-one], the IC50 in test [1] came to 420 nM; in test [2], 22.8 nM; in test [3] it was 160 nM; in test [4], 12.5 nM.
As for `Cc1cc(C2=NNC(=O)CC2)ccc1-c1ccncc1` [Example 5, 6-[3-Methyl-4-(pyridin-4-yl)phenyl]-4,5-dihydropyridazin-3(2H)-one], the IC50 came to 120 nM in test [1], 65.7 nM in test [2], 39 nM in test [3] and 21.3 nM in test [4].
Taken in the same sequence, the figures for `Cc1cc(C2=NNC(=O)CC2)ccc1-c1cn[nH]c1` [Example 6, 6-[3-Methyl-4-(1H-pyrazol-4-yl)phenyl]-4,5-dihydropyridazin-3(2H)-one] were 72 nM, 89.3 nM, 87 nM and 53.3 nM.
Regarding `Cc1cc(C2=NNC(=O)CC2)ccc1C1=CCOCC1` [Example 7, 6-[4-(3,6-Dihydro-2H-pyran-4-yl)-3-methylphenyl]-4,5-dihydropyridazin-3(2H)-one], the IC50 in test [1] was 200 nM; in test [2] it was greater than 100 nM; in test [3] it was 35 nM; in test [4], 55.6 nM.
Consider `O=C1CCC(c2ccc(-c3ccc(F)cc3)c(F)c2)=NN1` [Example 8, 6-(2,4′-Difluorobiphenyl-4-yl)-4,5-dihydropyridazin-3(2H)-one], for which the IC50 amounted to 90 nM in test [1], 5.01 nM in test [2], 49 nM in test [3] and 1.27 nM in test [4].
For the compound `Nc1cc(-c2ccc(C3=NNC(=O)CC3)cc2F)ccc1Cl` [Example 9, 6-(3′-Amino-4′-chloro-2-fluorobiphenyl-4-yl)-4,5-dihydropyridazin-3(2H)-one], the IC50 was 90 nM in test [1], 2.12 nM in test [2], 35 nM in test [3] and 1.55 nM in test [4].
Taken in the same sequence, the figures for `COc1ccc(C2=NNC(=O)CC2)cc1Cl` [Example 10, 6-(3-Chloro-4-methoxyphenyl)-4,5-dihydropyridazin-3(2H)-one] were 110 nM, 40.2 nM, 110 nM and 31.8 nM.
The matching figures for `Cc1cc(C2=NNC(=O)CC2)ccc1Cl` [Example 11, 6-(4-Chloro-3-methylphenyl)-4,5-dihydropyridazin-3(2H)-one]: 660 nM, 70.3 nM, 710 nM and 41.4 nM.
For the compound `O=C1CCC(c2cc(F)c(N3CCC(F)(F)CC3)c(F)c2)=NN1` [Example 12, 6-[4-(4,4-Difluoropiperidin-1-yl)-3,5-difluorophenyl]-4,5-dihydropyridazin-3(2H)-one], the IC50 in test [1] turned out to be 110 nM; in test [2], 11.4 nM; in test [3], 62 nM; in test [4], 5.48 nM.
Consider `O=C1CCC(c2ccc(-c3ccccc3C(F)(F)F)c(F)c2)=NN1` [Example 61, 6-[2-fluoro-2′-(trifluoromethyl)[1,1′-biphenyl]-4-yl]-4,5-dihydropyridazin-3(2H)-one], for which the IC50 in test [2] was determined as 37.6 nM; in test [4], 19.5 nM.
